Results: the supplement of paper PMC10307832

Key:
Experiment in all cases: relative viability (nuclei count vs DMSO), 5 days (fraction); higher = more cells survive
RO-3306 + AZD7762 = compound: C1=CC2=C(C=CC(=C2)C=C3C(=O)NC(=NCC4=CC=CS4)S3)N=C1 [RO-3306] + NC(=O)Nc1cc(-c2cccc(F)c2)sc1C(=O)N[C@H]1CCCNC1 [AZD7762] (partner 0.2 µM)
In short: (§1)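 Lung cancer cell lines, seeded in 1536-well plates, were treated the following day by pin tool with a single drug or with five library-drug doses (not always all listed) in √10 steps on top of a fixed anchor-drug dose. Cells were fixed and nuclei stained in one step after 5 days, and nuclei were counted. Relative viability is the nuclei count for treated wells divided by that for vehicle wells, reported as medians of duplicate plates.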

RO-3306 + Vorinostat = compound: C1=CC2=C(C=CC(=C2)C=C3C(=O)NC(=NCC4=CC=CS4)S3)N=C1 [RO-3306] + O=C(CCCCCCC(=O)Nc1ccccc1)NO [Vorinostat] (partner 1 µM)
In short: as §1

RO-3306 + Lapatinib = compound: C1=CC2=C(C=CC(=C2)C=C3C(=O)NC(=NCC4=CC=CS4)S3)N=C1 [RO-3306] + CS(=O)(=O)CCNCc1ccc(-c2ccc3ncnc(Nc4ccc(OCc5cccc(F)c5)c(Cl)c4)c3c2)o1 [Lapatinib] (partner 2 µM)
In short: as §1

RO-3306 + Luminespib = compound: C1=CC2=C(C=CC(=C2)C=C3C(=O)NC(=NCC4=CC=CS4)S3)N=C1 [RO-3306] + CCNC(=O)c1noc(-c2cc(C(C)C)c(O)cc2O)c1-c1ccc(CN2CCOCC2)cc1 [Luminespib] (partner 0.01 µM)
In short: as §1

Cell Line	relative viability (RO-3306 + AZD7762; first compound 0.01 µM)	relative viability (RO-3306 + AZD7762; first compound 0.03162 µM)	relative viability (RO-3306 + AZD7762; first compound 0.1 µM)	relative viability (RO-3306 + AZD7762; first compound 0.3162 µM)	relative viability (RO-3306 + AZD7762; first compound 1 µM)	relative viability (RO-3306 + Vorinostat; first compound 0.01 µM)	relative viability (RO-3306 + Vorinostat; first compound 0.03162 µM)	relative viability (RO-3306 + Vorinostat; first compound 0.1 µM)	relative viability (RO-3306 + Vorinostat; first compound 0.3162 µM)	relative viability (RO-3306 + Vorinostat; first compound 1 µM)	relative viability (RO-3306 + Lapatinib; first compound 0.01 µM)	relative viability (RO-3306 + Lapatinib; first compound 0.03162 µM)	relative viability (RO-3306 + Lapatinib; first compound 0.1 µM)	relative viability (RO-3306 + Lapatinib; first compound 0.3162 µM)	relative viability (RO-3306 + Lapatinib; first compound 1 µM)	relative viability (RO-3306 + Luminespib; first compound 0.01 µM)	relative viability (RO-3306 + Luminespib; first compound 0.03162 µM)	relative viability (RO-3306 + Luminespib; first compound 0.1 µM)	relative viability (RO-3306 + Luminespib; first compound 0.3162 µM)	relative viability (RO-3306 + Luminespib; first compound 1 µM)
LC-2-ad	0.86	0.842	0.826	0.823	0.647	0.773	0.635	0.78	0.695	0.626	0.949	0.979	0.868	0.948	0.883	1.01	0.907	0.966	1.09	1.02
LCLC-97TM1	0.258	–	0.197	0.31	0.26	0.804	0.546	0.694	0.789	1.1	–	0.794	0.949	1.22	1.09	0.765	0.711	0.61	0.752	0.93
LK-2	0.459	0.354	0.425	0.448	0.472	0.293	0.248	0.324	0.275	0.295	0.931	0.705	0.886	0.88	0.985	0.187	–	0.18	0.167	0.228
LOU-NH91	0.76	0.721	0.746	0.721	0.667	0.857	0.828	0.854	0.871	0.866	0.692	0.739	0.811	0.771	0.677	0.348	0.298	0.312	0.28	0.291
LU99A	0.394	0.325	0.483	0.319	0.338	0.648	0.626	0.461	0.432	0.388	1.2	0.971	0.915	0.789	0.914	0.203	0.245	0.233	0.25	0.275
LXF-289	1.08	0.993	1.17	0.973	1.22	0.789	0.807	0.695	0.749	0.744	0.918	0.919	0.947	0.893	0.787	0.766	0.654	0.593	0.603	0.577
NCI-H23	0.249	–	0.21	0.303	0.227	0.828	–	0.547	0.55	0.501	1	1.02	1.05	1.12	0.748	0.237	–	–	0.216	0.204
NCI-H322M	0.538	0.697	0.625	0.597	0.582	0.878	0.859	0.807	0.868	0.584	0.576	0.595	0.575	0.586	0.561	0.801	0.708	0.907	0.943	0.835
NCI-H358	0.486	0.493	0.49	0.52	0.578	0.821	0.603	0.596	0.638	0.524	0.5	0.431	0.39	0.495	0.425	0.408	0.292	0.376	0.316	0.229
NCI-H460	0.797	0.675	0.682	0.737	0.785	1.19	0.517	0.677	0.976	0.448	1.64	–	0.958	1.18	1.25	0.033	0.029	0.0336	0.0289	0.0305
NCI-H596	1.17	1.01	1.03	1.1	0.917	0.589	0.512	0.533	0.726	0.713	0.892	0.83	1.08	1.07	1.17	1.06	0.853	1.13	0.84	0.974
NCI-H647	0.519	0.339	0.325	0.515	0.31	0.708	0.512	0.371	0.6	0.473	1.45	0.881	0.974	1.32	0.783	0.234	0.121	0.122	0.174	0.322
NCI-H650	0.874	0.911	0.943	1.05	0.952	0.406	0.376	0.41	0.428	0.415	0.867	0.728	0.774	1.06	1.01	0.716	0.755	0.813	0.798	0.789
NCI-H727	0.488	0.681	0.558	0.567	0.739	1.08	1.25	1.02	1.3	1.06	0.869	0.647	0.789	0.845	0.972	0.244	–	0.453	0.906	0.3
NCI-H838	1.03	0.908	0.975	0.972	0.931	0.726	0.694	0.722	0.738	0.674	1.02	0.6	0.951	1.08	0.902	0.523	0.274	0.24	0.316	0.221
NCI-H1355	0.792	0.762	0.677	0.694	0.863	0.694	0.538	0.644	0.6	0.591	1.15	0.926	0.973	1.04	0.886	0.888	–	0.68	0.84	0.68
NCI-H1395	0.44	0.42	0.374	0.374	0.427	0.738	0.649	0.579	0.689	0.629	0.817	0.925	0.824	1.08	0.826	0.915	0.878	0.622	0.653	0.519

Cell Line	relative viability (RO-3306 + AZD7762; first compound 0.01 µM)	relative viability (RO-3306 + AZD7762; first compound 0.03162 µM)	relative viability (RO-3306 + AZD7762; first compound 0.1 µM)	relative viability (RO-3306 + AZD7762; first compound 0.3162 µM)	relative viability (RO-3306 + AZD7762; first compound 1 µM)	relative viability (RO-3306 + Vorinostat; first compound 0.01 µM)	relative viability (RO-3306 + Vorinostat; first compound 0.03162 µM)	relative viability (RO-3306 + Vorinostat; first compound 0.1 µM)	relative viability (RO-3306 + Vorinostat; first compound 0.3162 µM)	relative viability (RO-3306 + Vorinostat; first compound 1 µM)	relative viability (RO-3306 + Lapatinib; first compound 0.01 µM)	relative viability (RO-3306 + Lapatinib; first compound 0.03162 µM)	relative viability (RO-3306 + Lapatinib; first compound 0.1 µM)	relative viability (RO-3306 + Lapatinib; first compound 0.3162 µM)	relative viability (RO-3306 + Lapatinib; first compound 1 µM)	relative viability (RO-3306 + Luminespib; first compound 0.01 µM)	relative viability (RO-3306 + Luminespib; first compound 0.03162 µM)	relative viability (RO-3306 + Luminespib; first compound 0.1 µM)	relative viability (RO-3306 + Luminespib; first compound 0.3162 µM)	relative viability (RO-3306 + Luminespib; first compound 1 µM)
NCI-H1437	1.2	1.08	1.11	1.15	0.882	0.848	0.782	0.807	0.751	0.688	0.835	0.543	0.788	0.794	0.772	1.17	1.02	1.09	1.11	1.17
NCI-H1651	0.437	0.406	0.454	0.424	0.469	0.559	0.535	0.529	0.544	0.511	0.839	0.648	0.77	0.972	0.644	1.21	0.873	0.857	1.03	0.802
NCI-H1666	0.787	0.878	0.858	0.88	0.799	0.803	0.952	1.04	1.05	0.972	0.593	0.407	0.609	0.61	0.457	0.929	0.883	1.05	1.05	0.891
NCI-H1734	0.596	0.491	0.536	0.585	0.483	0.802	0.631	0.733	0.828	0.734	1.06	0.834	1.03	1.07	0.808	0.168	0.172	0.205	0.195	0.171
NCI-H1755	0.609	0.473	0.458	0.439	0.496	0.881	0.856	0.771	0.745	0.706	1.2	1.04	1.03	1.04	1.01	0.435	0.3	0.275	0.269	0.484
NCI-H1793	0.643	–	0.484	0.277	0.532	0.985	–	0.58	0.701	0.721	0.794	0.409	0.641	0.753	0.636	0.129	0.162	0.195	0.205	0.191
NCI-H1915	0.749	0.679	0.727	0.698	0.685	0.577	0.564	0.505	0.49	0.505	1.07	0.973	0.969	0.945	0.446	0.975	0.493	0.879	0.805	0.749
NCI-H1944	0.606	0.571	0.508	0.45	0.46	0.595	0.566	0.588	0.562	0.509	0.774	0.674	0.802	0.909	0.545	0.83	0.667	0.681	0.62	0.678
NCI-H1975	0.762	0.671	0.712	0.641	0.653	0.608	0.624	0.685	0.701	0.69	1.05	0.559	0.787	0.919	0.752	0.443	0.142	0.242	0.175	0.294
NCI-H1993	0.697	0.756	0.772	0.77	0.684	0.82	0.707	0.751	0.822	0.716	–	0.747	0.74	0.795	0.839	0.792	0.697	0.913	0.799	0.746
NCI-H2085	1.04	0.95	0.93	0.921	1.07	0.83	0.733	0.775	0.781	0.8	0.726	0.746	0.798	0.727	0.757	0.377	0.499	0.517	0.437	0.46
NCI-H2087	1.42	1.03	1.35	1.42	1.34	0.775	0.805	0.756	0.864	0.86	0.894	1.12	1.02	0.968	0.889	0.196	0.175	0.149	0.23	0.17
NCI-H2126	1.01	0.976	1.02	0.993	1.13	0.747	0.679	0.812	0.879	0.733	0.644	0.719	0.742	0.76	0.747	0.867	0.858	0.895	1	0.949
NCI-H2170	1.11	0.865	0.938	0.939	0.907	0.901	0.568	0.886	0.842	0.856	0.254	0.302	0.272	0.265	0.302	0.485	0.803	0.419	0.669	0.639
NCI-H2347	1.13	0.663	0.796	0.766	0.724	0.539	0.541	0.51	0.532	0.701	0.914	0.932	0.969	0.897	0.91	1.03	0.43	0.825	0.253	0.575
NCI-H2405	0.828	0.608	0.717	0.718	0.578	1.01	0.949	0.968	0.916	0.231	1.03	1.04	1.01	1.09	1.01	0.753	0.705	0.849	0.607	0.7
